Test results published in patent US20180099931A1 (AbbVie S.à.r.l., priority 2016, published 2018).
Like-named read-outs stand apart in the source and are kept apart here.

Target: T1, F508delCFTR (Homo sapiens, UniProt P13569, DEL508-508)
T1 construct: expressed in transfected cells; host or cells: CFBE41o- human lung-derived epithelial cells (CFBE4lo-F508delCFTR-HRP), doxycycline-inducible
Test: Cell Surface Expression-Horse Radish Peroxidase (CSE-HRP) Assay;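 on Maximum % activity (with co-corrector): co-corrector and positive control are both the same reference corrector at 2 µM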;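 on Maximum % activity (without co-corrector): percent of the 2 µM on-plate positive control corrector response above DMSO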
Type: cell-based
Conditions: CSE-HRP; for Maximum % activity (with co-corrector): with co-corrector (2 μM); for Maximum % activity (with co-corrector) / Emax: maximum at any tested concentration, normalized to on-plate positive control; for Emax: without co-corrector, read-out: Maximum % activity (without co-corrector)

[1] = test compound without co-corrector, read-out: EC50 (without co-corrector)
[2] = with co-corrector (2 μM of 3-[(2R,4R)-4-({[1-(2,2-difluoro-1,3-benzodioxol-5-yl)cyclopropyl]carbonyl}amino)-7-methoxy-3,4-dihydro-2H-chromen-2-yl]benzoic acid), read-out: EC50 (with co-corrector)

T1 sequence (P13569 with tags, fused parts or gaps DEL508-508): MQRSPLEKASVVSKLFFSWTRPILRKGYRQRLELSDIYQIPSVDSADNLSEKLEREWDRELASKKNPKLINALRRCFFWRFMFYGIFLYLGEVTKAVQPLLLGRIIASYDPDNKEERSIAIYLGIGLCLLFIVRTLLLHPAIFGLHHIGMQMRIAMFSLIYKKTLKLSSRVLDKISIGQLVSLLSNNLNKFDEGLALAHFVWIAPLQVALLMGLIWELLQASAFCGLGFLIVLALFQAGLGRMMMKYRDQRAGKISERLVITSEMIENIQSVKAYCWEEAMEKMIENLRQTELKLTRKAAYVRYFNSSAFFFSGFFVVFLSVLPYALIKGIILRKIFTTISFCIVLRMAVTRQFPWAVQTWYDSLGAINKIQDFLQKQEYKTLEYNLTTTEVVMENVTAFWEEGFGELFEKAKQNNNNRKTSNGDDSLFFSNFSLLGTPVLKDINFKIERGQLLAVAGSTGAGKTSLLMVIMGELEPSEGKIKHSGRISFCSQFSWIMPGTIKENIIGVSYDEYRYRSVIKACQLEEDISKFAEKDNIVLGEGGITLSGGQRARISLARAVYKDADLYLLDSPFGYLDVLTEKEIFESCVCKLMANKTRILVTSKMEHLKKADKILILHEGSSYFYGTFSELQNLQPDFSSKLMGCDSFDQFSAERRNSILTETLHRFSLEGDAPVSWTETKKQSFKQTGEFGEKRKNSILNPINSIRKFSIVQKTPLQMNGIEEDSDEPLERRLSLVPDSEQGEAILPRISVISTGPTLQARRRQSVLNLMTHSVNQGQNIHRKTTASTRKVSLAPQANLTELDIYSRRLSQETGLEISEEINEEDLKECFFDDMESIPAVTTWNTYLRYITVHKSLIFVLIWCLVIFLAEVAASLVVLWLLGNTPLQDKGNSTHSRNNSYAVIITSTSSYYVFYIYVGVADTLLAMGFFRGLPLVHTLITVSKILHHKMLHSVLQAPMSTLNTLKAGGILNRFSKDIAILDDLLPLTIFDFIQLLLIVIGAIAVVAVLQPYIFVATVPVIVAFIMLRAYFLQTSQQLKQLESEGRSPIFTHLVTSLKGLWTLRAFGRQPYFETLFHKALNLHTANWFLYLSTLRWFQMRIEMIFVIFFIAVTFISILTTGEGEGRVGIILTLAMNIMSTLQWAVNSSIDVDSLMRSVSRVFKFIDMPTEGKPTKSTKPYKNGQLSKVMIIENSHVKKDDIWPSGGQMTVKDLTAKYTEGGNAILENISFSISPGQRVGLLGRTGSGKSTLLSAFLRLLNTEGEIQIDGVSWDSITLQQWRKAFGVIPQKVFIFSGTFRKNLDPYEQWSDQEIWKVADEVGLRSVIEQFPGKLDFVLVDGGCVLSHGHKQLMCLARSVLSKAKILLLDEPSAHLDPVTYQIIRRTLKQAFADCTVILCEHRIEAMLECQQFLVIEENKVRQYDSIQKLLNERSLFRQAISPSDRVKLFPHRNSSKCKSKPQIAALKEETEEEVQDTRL

| Compound | EC50 [1] [nM] | EC50 [2] [nM] | Maximum % activity (with co-corrector) | Emax [%] |
| --- | --- | --- | --- | --- |
| COc1ccc(C(C)(C)C)cc1CN[C@H]1[C@H](C(C)(C)C)[C@@H](C(=O)O)N(C(=O)C2CCC2)[C@H]1c1ccccc1C(F)(F)F [Example I-277] | 1000 to 10000 | 1000 to 10000 | +++ (≥350) | 100 to 200 |
| COc1ncc(C2CCC2)cc1CN[C@H]1[C@H](C(C)(C)C)[C@@H](C(=O)O)N(C(=O)C2CCC2)[C@H]1c1ccccc1C(F)(F)F [Example I-278] | 1000 to 10000 | 1000 to 10000 | ++ (≥150 and <350) | < 100 |
| COc1ccc(C2(C)CCC2)cc1CN[C@H]1[C@H](C(C)(C)C)[C@@H](C(=O)O)N(C(=O)C2CCC2)[C@H]1c1ccccc1C(F)(F)F [Example I-279] | 1000 to 10000 | 1000 to 10000 | +++ (≥350) | 100 to 200 |
| COc1ncc(C(F)(F)F)cc1CN[C@H]1[C@H](C(C)(C)C)[C@@H](C(=O)O)N(C(=O)C2CCC2)[C@H]1c1ccccc1C(F)(F)F [Example I-280] | 1000 to 10000 | 1000 to 10000 | ++ (≥150 and <350) | < 100 |
| COc1ncc(C2CCC2)cc1CN[C@H]1[C@H](C(C)(C)C)[C@@H](C(=O)O)N(C(=O)[C@@H]2CCCO2)[C@H]1c1cccnc1N(C)C [Example I-281] | 1000 to 10000 | 1000 to 10000 | +++ (≥350) | 100 to 200 |
| COc1ccc(C2(C)CCC2)cc1CN[C@H]1[C@H](C(C)(C)C)[C@@H](C(=O)O)N(C(=O)[C@@H]2CCCO2)[C@H]1c1cccnc1N(C)C [Example I-283] | 1000 to 10000 | 1000 to 10000 | +++ (≥350) | > 200 |
| COc1ccc(C(C)(C)C)cc1CN[C@H]1[C@H](C(C)(C)C)[C@@H](C(=O)O)N(C(=O)[C@@H]2CCCO2)[C@H]1c1cccnc1N(C)C [Example I-284] | 1000 to 10000 | 1000 to 10000 | +++ (≥350) | > 200 |
| CC(C)c1ccccc1[C@H]1[C@@H](NCc2cc(C(C)(C)C)ccc2O)[C@H](C(C)(C)C)[C@@H](C(=O)O)N1C(=O)[C@@H]1CCCO1 [Example I-285] | > 10000 | < 1000 | + (<150) | < 100 |
| COc1ncc(C2CCC2)cc1CN[C@H]1[C@H](C(C)(C)C)[C@@H](C(=O)O)N(C(=O)[C@@H]2CCCO2)[C@H]1c1ccccc1C(F)(F)F [Example I-286] | 1000 to 10000 | < 1000 | +++ (≥350) | 100 to 200 |
| COc1ncc(Br)cc1CN[C@H]1[C@H](C(C)(C)C)[C@@H](C(=O)O)N(C(=O)[C@@H]2CCCCO2)[C@H]1c1ccccc1C [Example I-287] | 1000 to 10000 | < 1000 | +++ (≥350) | > 200 |
| COc1ncc(C(F)(F)F)cc1CN[C@H]1[C@H](C(C)(C)C)[C@@H](C(=O)O)N(C(=O)[C@@H]2CCCCO2)[C@H]1c1ccccc1Br [Example I-288] | 1000 to 10000 | < 1000 | +++ (≥350) | 100 to 200 |
| COc1cc(C(F)(F)F)ccc1CN[C@H]1[C@H](C(C)(C)C)[C@@H](C(=O)O)N(C(=O)[C@@H]2CCCCO2)[C@H]1c1ccccc1Br [Example I-289] | 1000 to 10000 | < 1000 | +++ (≥350) | 100 to 200 |
| COc1ccc(C(F)(F)F)cc1CN[C@H]1[C@H](C(C)(C)C)[C@@H](C(=O)O)N(C(=O)[C@@H]2CCCCO2)[C@H]1c1ccccc1Br [Example I-290] | 1000 to 10000 | 1000 to 10000 | +++ (≥350) | > 200 |
| COc1ncc(C2CCC2)cc1CN[C@H]1[C@H](C(C)(C)C)[C@@H](C(=O)O)N(C(=O)[C@@H]2CCCCO2)[C@H]1c1ccccc1Br [Example I-291] | < 1000 | < 1000 | +++ (≥350) | 100 to 200 |
| COc1ncc(C(F)(F)F)cc1CN[C@H]1[C@H](C(C)(C)C)[C@@H](C(=O)O)N(C(=O)[C@@H]2CCCO2)[C@H]1c1ccccc1Br [Example I-292] | 1000 to 10000 | < 1000 | +++ (≥350) | 100 to 200 |
| COc1ncc(C2CC2)cc1CN[C@H]1[C@H](C(C)(C)C)[C@@H](C(=O)O)N(C(=O)[C@@H]2CCCO2)[C@H]1c1ccccc1Br [Example I-293] | 1000 to 10000 | 1000 to 10000 | +++ (≥350) | > 200 |
| COc1ccc(C(C)(C)C)cc1CN[C@H]1[C@H](C(C)(C)C)[C@@H](C(=O)O)N(C(=O)[C@@H]2CCCO2)[C@H]1c1ccccc1Br [Example I-294] | 1000 to 10000 | < 1000 | +++ (≥350) | > 200 |
| COc1ccc(C2(C)CCC2)cc1CN[C@H]1[C@H](C(C)(C)C)[C@@H](C(=O)O)N(C(=O)[C@@H]2CCCO2)[C@H]1c1ccccc1Br [Example I-295] | 1000 to 10000 | < 1000 | +++ (≥350) | > 200 |
| COc1ncc(C2CCC2)cc1CN[C@H]1[C@H](C(C)(C)C)[C@@H](C(=O)O)N(C(=O)[C@@H]2CCCCO2)[C@H]1c1ccccc1C1CC1 [Example I-296] | 1000 to 10000 | 1000 to 10000 | +++ (≥350) | > 200 |
| CCc1ccccc1[C@H]1[C@@H](NCc2cc(C3CCC3)cnc2OC)[C@H](C(C)(C)C)[C@@H](C(=O)O)N1C(=O)[C@@H]1CCCCO1 [Example I-297] | 1000 to 10000 | < 1000 | +++ (≥350) | > 200 |
| COc1ncc(C(F)(F)F)cc1CN[C@H]1[C@H](C(C)(C)C)[C@@H](C(=O)O)N(C(=O)[C@@H]2CCCCO2)[C@H]1c1cccc2c1OCC2 [Example I-298] | 1000 to 10000 | 1000 to 10000 | +++ (≥350) | 100 to 200 |
| COc1ccc(C(F)(F)F)cc1CN[C@H]1[C@H](C(C)(C)C)[C@@H](C(=O)O)N(C(=O)[C@@H]2CCCCO2)[C@H]1c1cccc2c1OCC2 [Example I-299] | 1000 to 10000 | 1000 to 10000 | +++ (≥350) | 100 to 200 |
| COc1cc(C(F)(F)F)ccc1CN[C@H]1[C@H](C(C)(C)C)[C@@H](C(=O)O)N(C(=O)[C@@H]2CCCCO2)[C@H]1c1cccc2c1OCC2 [Example I-300] | 1000 to 10000 | 1000 to 10000 | +++ (≥350) | > 200 |
| COc1ncc(C2CCC2)cc1CN[C@H]1[C@H](C(C)(C)C)[C@@H](C(=O)O)N(C(=O)[C@@H]2CCCCO2)[C@H]1c1cccc2c1OCC2 [Example I-301] | 1000 to 10000 | 1000 to 10000 | +++ (≥350) | > 200 |
| COc1cc2c(cc1CN[C@H]1[C@H](C(C)(C)C)[C@@H](C(=O)O)N(C(=O)[C@@H]3CCCCO3)[C@H]1c1cccc3c1OCC3)CCCC2 [Example I-302] | 1000 to 10000 | 1000 to 10000 | +++ (≥350) | 100 to 200 |
